Test results from patent US9457063B2, “Method for treatment of diabetic vascular leakage-induced disease using C-peptide” (KANGWON NATIONAL UNIVERSITY UNIVERSITY-INDUSTRY COOPERATION …, priority 2012, dated 2016).
“And” between values parts separate entries of the source, which are not always exact repeats. Equal values may be shown once.

Tests used:
[1] = tested on: HUVECs; assay: VEGF-induced intracellular ROS generation in HUVECs; format: cell-based, human; conditions: for VEGF-induced intracellular ROS generation: HUVECs pre-incubated 30 min with 1 mM NAC, 0.5 mM Trolox or 5 μM BAPTA-AM, 10 ng/ml VEGF 10 min
Method: HUVECs were isolated from the human umbilical cord vein according to a well known process, and cells from passages 3 to 6 were used in the following experiments. Cells were inoculated into M199 culture media (supplemented with 20% FBS, 3 ng/ml bFGF, 5 U/ml heparin, 100 U/ml penicillin, and 100 μg/ml streptomycin) in 2% gelatin-coated coverslips, dishes, or plates, and grown at 37° C. in a humidified 5% CO2 incubator.
For experiments, cells were incubated for 6 h in low-serum medium (M199 supplemented as above, but with only 1% FBS), and treated for a suitable time with 10 ng/ml VEGF in the presence or absence of various concentrations of C-peptide.
In detail, HUVECs inoculated into coverslips were treated with VEGF and C-peptide, and incubated with 10 μM 2′,7′-dichlorodihydrofluorescein diacetate (Molecular Probes, Eugene, Oreg.) in phenol red-free media for the last 10 min. The coverslips were mounted on a perfusion chamber, and labeled cells were rapidly scanned by confocal microscopy. The level of intracellular ROS was determined by comparing the fluorescence intensities of treated cells with those of control cells, and expressing this as a fold difference.

[2] = tested on: HUVECs; assay: Intracellular Ca2+ levels in HUVECs (Fluo-4 AM); format: cell-based, human; conditions: HUVECs labeled with 1 μM Fluo-4 AM; for effect on VEGF-induced changes in intracellular Ca2+: n=3
Method: To monitor intracellular Ca^2+ levels, cells inoculated into coverslips were incubated with 1 μM Fluo-4 AM for 30 min. The coverslips were mounted on perfusion chambers and scanned every 10 sec by confocal microscopy (FV-300). Serial images from the scan were processed to analyze changes in intracellular Ca^2+ levels at the single-cell level. Data were expressed as the relative fluorescence intensity (RFI).

[3] = tested on: retinas of streptozotocin diabetic mice; assay: Retinal vascular leakage in streptozotocin diabetic mice (FITC-dextran fluorescein angiography); format: in vivo; conditions: for retinal microvascular leakage (extravasation of FITC-dextran) in diabetic mice: intravitreal injection, VEGF antibody 100 μg/ml, N-acetyl-cysteine 81.5 mg/ml, Trolox 125 μg/ml, 2 μl C-peptide, 24 hrs post-injection, n=6, p<0.01
Method: Diabetic mice were generated by a single intraperitoneal injection of streptozotocin (150 mg/kg body weight) freshly prepared in 100 mM citrate buffer (pH 4.5). All mice were supplied with 10% sucrose overnight. Sufficient hyperglycemia was observed 2 days post-injection, as measured by the ACCU-CHEK® Active blood glucose monitor (Roche Diagnostics, Germany). One week after the streptozotocin injection, mice with non-fasting blood glucose levels greater than 16 mM, polyuria, and glucosuria were defined as diabetic and used for the experiments.
The diabetic mice were intravitreally injected with 2 μl of C-peptide (3.7 μg/ml) in PBS into one eye, and an equal volume of PBS was injected into the contralateral eye (n=6 per group). Normal (non-diabetic) mice were also intravitreally injected with 2 μl of PBS into eyes (Normal; n=6 per group). C-peptide concentrations in the vitreous chamber were maintained within the physiological range (0.9 to 2.0 nM) for 12 hrs after intravitreal injection.
After 24 hrs post injection, retina leakage was quantified using fluorescein angiography. In this regard, mice were injected with 1.25 mg of 500-kDa FITC-dextran (Sigma-Aldrich) into the left ventricle and the dye was allowed to circulate for 5 min. Eyes were enucleated and immediately fixed with 4% paraformaldehyde for 45 min. Retinas were dissected, cut in the Maltese cross-configuration, and flat-mounted onto slide glass. Retinas were observed using the confocal microscope. Retina leakage was quantitatively analyzed by determining the intensities of extravasated FITC-dextran from whole retina tissues (n=6 per group) using the FV-300 software.
Diabetic mice were intravitreally injected with a monoclonal VEGF antibody (100 μg/ml), N-acetyl-cysteine (81.5 mg/ml), or Trolox (125 μg/ml) into one eye, and an equal volume of PBS was injected into the contralateral eye (n=6 per group). Twenty four hrs post-injection, retinal vascular leakage was quantified using fluorescein angiography. For the experiment, mice were injected with 1.25 mg of 500-kDa FITC-dextran (Sigma) into the left ventricle and the dye was allowed to circulate for 5 min. The eyes were enucleated and immediately fixed with 4% paraformaldehyde for 45 min. Retinas were dissected, cut in the Maltese cross-configuration, and flat-mounted onto slide glass before observation using confocal microscopy. Retinal vascular leakage was quantitatively analyzed by determining the intensities of extravasated FITC-dextran from whole retina tissues (n=6 per group) using confocal microscopy (FV-300, Olympus, Tokyo, Japan), and applying the intensity data to the FV-300 software.

[4] = tested on: HUVECs; assay: VEGF-induced stress fiber formation in HUVECs (rhodamine-phalloidin); format: cell-based, human; conditions: HUVECs 1 hr; 10 ng/ml VEGF with 0.5 nM C-peptide, 1 mM NAC or 0.5 mM Trolox; n=3
Method: HUVECs were grown on gelatin-coated round coverslips in 12-well culture plates, […], alone or in combination, or with 10 ng/ml VEGF in the presence of an ROS scavenger, that is, 1 mM NAC or 0.5 mM Trolox for 1 hr at 37° C. The cells were rapidly rinsed with PBS and fixed with 3.7% formaldehyde in PBS for 30 min. Then, the cells were permeabilized with 0.2% Triton X-100 in PBS for 30 min, and stained with rhodamine-palloidin (Molecular Probes) in PBS for 1 h. The resulting stained cells were mounted on a glass slide using a mounting solution, followed by visualizing actin filaments by confocal microscopy.

[5] = tested on: HUVECs; assay: VEGF-induced disassembly of VE-cadherin adherens junctions in HUVECs; format: cell-based, human; conditions: for VEGF-induced disassembly of VE-cadherin: HUVECs 90 min, 10 ng/ml VEGF with 0.5 nM C-peptide, 1 mM NAC or 0.5 mM Trolox, n=3
Method: Confluent cell layers (HUVECs) in 6-well plates were incubated with C-peptide or an ROS scavenger for 30 min, and then treated with VEGF for 90 min at 37° C. The treated cells were rinsed with PBS, and fixed with 3.7% formaldehyde in PBS for 30 min. The cells were permeabilized with 0.2% Triton X-100 in PBS for 30 min, and stained overnight at 4° C. with a monoclonal VE-cadherin antibody (Santa Cruz Biotechnology, Santa Cruz, Calif.) in PBS. Thereafter, the cells were probed with goat anti-mouse FITC (fluorescein isothiocyanate; Sigma, St. Louis, Mo.), followed by visualizing VE-cadherin by confocal microscopy.

[6] = tested on: microvessels of the diabetic mouse retina; assay: Disassembly of adherens junctions (VE-cadherin) in retina of diabetic mice; format: in vivo; conditions: intravitreal 2 μl C-peptide, n=3
Method: Diabetic mice were intravitreally injected with 2 μl C-peptide into one eye (Diabetic+C-Pep) and an equal volume of PBS into the contralateral eye (Diabetic, n=3). Normal (non-diabetic) mice also were intravitreally injected with 2 μl PBS into eyes (Normal, n=3).
VE-cadherin was stained in the retina and visualized using confocal microscopy as described below.
Microvessels were stained for VE-cadherin in retinal whole mounts. In detail, isolated retinas were fixed in 100% ethanol for 30 min, delipidated in 100% ice-cold acetone for 10 min, and permeabilized with 0.3% Triton X-100 for 1 hr. The retinas were incubated with an anti-VE-cadherin antibody (Enzo Life Sciences, Farmingdale, N.Y., USA) at 4° C. for 24 hrs, and probed with goat anti-mouse FITC (Sigma) at 4° C. for 24 hrs, followed by visualizing VE-cadherin by confocal microscopy (FV-300, Olympus).

[7] = Serum C-peptide levels during subcutaneous mini-osmotic pump delivery; format: in vivo; conditions: diabetic mice, 35 pmol/min/kg, n=7
Method: After implantation of a mini-osmotic pump for delivering C-peptide, blood c-peptide levels were measured. One group of diabetic mice (n=7) was subcutaneously implanted with ALZET® mini-osmotic pump 2004 (DURECT, Cupertino, Calif.) containing C-peptide in PBS with a delivery rate of 35 pmol/min/kg. The other diabetic (n=7) and control groups (n=7) underwent sham operations. During the continuous subcutaneous C-peptide perfusion, serum C-peptide levels were measured using a C-peptide Enzyme Immunoassay Kit (RayBiotech, Norcross, Ga.).

[8] = tested on: skin of streptozotocin diabetic mice; assay: Miles vascular permeability assay in skin of streptozotocin diabetic mice; format: in vivo
Method: A Miles vascular permeability assay was performed in diabetic mice as follows. After 2 to 3 days post-shaving, mice were anesthetized and intravenously injected with 150 μl of a 1% Evans blue solution. After 15 min, 15 μl of a VEGF (10 ng) solution containing 0, 7.5, or 15 ng of C-peptide was injected intradermally into the shaved skin of the mice (n=12 per group). PBS was injected for the control (n=12). An area of skin that included the blue spot resulting from leakage of the dye was dissected, and the Evans blue dye was eluted from the dissected skin by incubation with formamide at 56° C. for 2 days. The amount of dye was quantitated by spectrophotometry at 620 nm.

[9] = C-peptide levels in the vitreous fluid after intravitreal injection; format: in vivo, mice; conditions: mouse, 7.5 ng, after intravitreal injection of 2 μl C-peptide (3.7 μg/ml), maintained for 12 hrs, physiological range, read-out: C-peptide concentrations in the vitreous chamber
Method: After intravitreal injection, C-peptide levels in the vitreous fluid were monitored with time. In this regard, C-peptide was intravitreally injected at a dose of 7.5 ng, after which C-peptide in the vitreous chamber was quantitated using a human C-peptide ELISA kit (Millipore Co. Billerica, Mass.) (n=4).

[10] = FIG. 6A
From the text: Table printed on a drawing sheet, FIG. 6A
Footnotes: Data are means ± S.D. / ***p<0.001 vs. control mice.
FIG. 6D is a graph in which serum C-peptide levels are plotted against time after intravitreal injection; and
First reader's note: Each column is a mouse group; the cells give mean ± S.D. of the serum C-peptide level.

| SMILES | VEGF-induced intracellular ROS generation [1] | effect on VEGF-induced changes in intracellular Ca2+ [2] | extravasation of FITC-dextran (vascular leakage) in the retinas of diabetic mice ([3]; intravitreal 2 μl C-peptide (3.7 μg/ml), 24 hrs post injection, vs PBS contralateral eye, n=6, p<0.05) | retinal microvascular leakage (extravasation of FITC-dextran) in diabetic mice [3] | concentration at which complete prevention of VEGF-induced ROS generation was observed ([1]; HUVECs pre-treated 30 min, 10 ng/ml VEGF) [nM] | VEGF-induced generation of intracellular ROS ([1]; HUVECs pre-treated with various concentrations of C-peptide 30 min, 10 ng/ml VEGF, dose-dependent) | effect of substance alone on intracellular Ca2+ ([2]; no VEGF) | VEGF-induced stress fiber formation [4] | VEGF-induced disassembly of VE-cadherin [5] | VEGF-induced decrease in the fluorescence intensity of the adherens junctions ([5]; HUVECs, VE-cadherin histograms (RFI), FIG. 4B) | diabetes-induced disassembly of adherens junctions in retinal microvessels [6] | serum C-peptide level [7] | VEGF-induced vascular permeability (Evans blue leakage) in skin ([8]; intradermal VEGF (10 ng) with 7.5 or 15 ng C-peptide, dose-dependent, n=12, p<0.01) | vascular permeability with C-peptide alone ([8]; intradermal, no VEGF) | level at time molar [9] [nM] | Serum C-peptide (nM) (4 weeks after C-peptide delivery) [10] | Serum C-peptide (nM) (at 1 week of diabetes induction) [10] |
| --- | --- | --- | --- | --- | --- | --- | --- | --- | --- | --- | --- | --- | --- | --- | --- | --- | --- |
| CC(=O)OCOC(=O)CN(CC(=O)OCOC(C)=O)c1ccccc1OCCOc1ccccc1N(CC(=O)OCOC(C)=O)CC(=O)OCOC(C)=O [BAPTA-AM, 1,2-bis(2-aminophenoxy)ethane-N,N,N-′,N′-tetraacetic acid tetrakis(acetoxymethyl ester), reference compound] | blocked | blocked |  |  |  |  |  |  |  |  |  |  |  |  |  |  |  |
| CC(C)C[C@H](NC(=O)[C@H](C)NC(=O)[C@H](CC(C)C)NC(=O)[C@@H]1CCCN1C(=O)[C@H](CCC(N)=O)NC(=O)[C@H](CC(C)C)NC(=O)[C@H](CO)NC(=O)CNC(=O)[C@H](C)NC(=O)CNC(=O)[C@@H]1CCCN1C(=O)CNC(=O)CNC(=O)CNC(=O)[C@H](CC(C)C)NC(=O)[C@H](CCC(=O)O)NC(=O)[C@@H](NC(=O)[C@H](CCC(N)=O)NC(=O)CNC(=O)[C@@H](NC(=O)[C@H](CCC(N)=O)NC(=O)[C@H](CC(C)C)NC(=O)[C@H](CC(=O)O)NC(=O)[C@H](CCC(=O)O)NC(=O)[C@H](C)NC(=O)[C@@H](N)CCC(=O)O)C(C)C)C(C)C)C(=O)N[C@@H](CCC(=O)O)C(=O)NCC(=O)N[C@@H](CO)C(=O)N[C@@H](CC(C)C)C(=O)N[C@@H](CCC(N)=O)C(=O)O [C-peptide] |  | had no effect | blocked | blocked | 0.5 | inhibited | did not increase | sufficiently suppressed | inhibited | recovered | inhibited | elevated to a normal value | suppressed | did not cause a significant change | 0.9 to 2 | 1.50 ± 0.89 nM and 2.40 ± 0.93 nM | 1.44 ± 0.53 |
| CC(=O)N[C@@H](CS)C(=O)O [NAC, N-acetyl-L-cysteine, reference compound] | abolished |  |  | prevented |  |  |  | inhibited | prevented |  |  |  |  |  |  |  |  |
| Cc1c(C)c2c(c(C)c1O)CCC(C)(C(=O)O)O2 (centres unmarked) [Trolox, reference compound] | abolished |  |  | prevented |  |  |  | inhibited | prevented |  |  |  |  |  |  |  |  |
